The record followed here is US6506567B2, “Water-soluble flourescent intercalator compound” (Fuji Photo Film Co., Ltd., priority 2000, dated 2003).

Type in all cases: binding
In assay [1] the test system is calf thymus DNA (hybrid DNA). Briefly: Detection of hybrid DNA fragment using fluorescent intercalator (fluorometry). The conditions noted are these: intercalator 1 M; calf thymus DNA 100 μM; 5 mM phosphate buffer pH 7.0, sodium sulfate 5 mM; excitation 434 nm. The protocol: (§1) The fluorescent intercalator (1 M) prepared above was placed in an aqueous 5 mM phosphate buffer solution (pH 7.0) containing a calf thymus DNA (hybrid DNA, 100 μM) and sodium sulfate (5 mM). In the buffer solution, the fluorescent intercalator was intercalated into the hybrid DNA. The fluorescence emitted by the buffer solution containing the hybrid DNA having the intercalated fluorescent intercalator was fluorometrically measured in the wavelength region of 440 to 600 nm by exciting with a light of 434 nm.
(§2) The fluorescence emitted by the same buffer solution containing no calf thymus DNA (i.e., hybrid DNA) was also measured in the same manner.

For assay [2], the system named is calf thymus DNA (hybrid DNA). Briefly: Rate of dissociation of intercalator from hybrid DNA (SDS addition, fluorescence over time). As to conditions: SDS final concentration 0.5 vol. %; same buffer solution as the fluorescence test. Here is the method:
(§3) To the buffer solution containing hybrid DNA and intercalator which was employed above was added an aqueous sodium dodecylsulfate (SDS) solution to give a final SDS concentration of 0.5 vol. %. After the SDS solution was added, variation of the fluorescence strength at a lapse of time was measured. From the variation data, the dissociation rate was determined. The dissociation rate was 0.02/sec.

Assay [3] concerns single stranded DNA (calf thymus DNA heated to 90° C. for 20 min.). Briefly: Rate of dissociation of intercalator from single stranded DNA. As to conditions: determined in the same manner as in Example 1 (SDS 0.5 vol. %). The protocol: as §3
(§4) The same calf thymus DNA (hybrid DNA) as employed in Example 1 was heated to 90° C. for 20 min., to give a single stranded DNA.
(§5) The procedures of Example 1 were repeated using thus prepared single stranded DNA in place of the hybrid DNA.

Assay [4] shares this test system. Briefly: Fluorometry with single stranded DNA in place of hybrid DNA. The conditions noted are these: procedures of Example 1, excitation 434 nm. The protocol:
as §1, §2, §4, §5

On to `COc1ccc2nc3cc(Cl)ccc3c(N)c2c1` [9-amino-6-chloro-2-methoxyacridine, reference compound], for which, in assay [1], the “fluorescence strength at 475 nm, buffer solution containing hybrid DNA relative to buffer solution containing no hybrid DNA” value is recorded as “approx. 6 times”. Also, the “dissociation rate from hybrid DNA” value in assay [2] came to 19.0 s⁻¹.
For “N,N-bis{3-[4-(3-(6-chloro-9-imino-2-methoxyacridinyl)propyl)-1,4-diazacyclohexyl]propyl}naphthalenediimide”, the “fluorescence strength at 475 nm, buffer solution containing hybrid DNA relative to buffer solution containing no hybrid DNA” value in assay [1] is reported as “not high”.
Turning to “N-{3-[4-(3-( 6-chloro-9-imino-2-methoxyacridinyl)propyl)-1,4-diazacyclohexyl]propyl}-N′-{3-[4-(3-aminopropyl)-1,4-diazacyclohexyl]propyl}naphthalenediimide”, the “dissociation rate from single stranded DNA” value in assay [3] worked out at 1.2 s⁻¹. In addition, the “fluorescence strength at 475 nm, buffer solution containing hybrid DNA relative to buffer solution containing no hybrid DNA” value in assay [1] is on record as “approx. 30 times”. Further, in assay [2], the “dissociation rate from hybrid DNA” value is 0.02 s⁻¹. For the same compound, the “fluorescence strength at 475 nm, buffer solution containing single stranded DNA relative to buffer solution containing no single stranded DNA” value in assay [4] is on record as “approx. 16 times”.
